Measurements from patent US20250108023A1, “Products for Masking Bitterness” (The Third People's Hospital of Henan Province, priority 2023, published 2025).

Assay: Broad-spectrum taste masking test on decoctions of extremely bitter Chinese herbal medicine slices
Format: in vivo, healthy volunteers
Parameters: key: reduction in bitterness degrees on a 5-degree graduation scale
Conditions: 0.1% taste masking agent in 40% ethanol
Method: According to the standard of decocting 100 ml of liquid from 10 g of dry Chinese herbal medicine slices (decoction method: use a stainless steel container, and keep for 20 minutes after boiling), from 300 commonly used Chinese herbal medicine slices, combined with the Chinese Pharmacopoeia, more than 20 Chinese herbal medicines with bitter or extremely bitter properties written in the pharmacopoeia were selected, including Bletilla striata, Cortex qin, Stephania tetrandra, Apricot kernel, Belamcanda chinensis, Angelica dahurica, Lotus seed heart, Toosendan fruit, Andrographis paniculata, Sophora flavescens, Coptis chinensis, Gentiana scabra, Forsythia suspensa, Sophora japonica, Phellodendron amurense, Scutellaria baicalensis, Platycodon grandiflorum, Notopterygium wilfordii, Saposhnikovia divaricata, Perilla frutescens, Zanthoxylum bungeana, Osmanthus fragrans, Sophora flavescens, and Chrysanthemum officinale, totally 24 kinds of Chinese herbal medicines.
Finally, through the 5-degree graduation method, 2 species with a bitterness higher than 3.5 (moderate bitterness) and 7 species with a bitterness higher than 5 degrees (highly bitter, extremely bitter, accompanied by nausea) were screened out, a total of 9 species (Angelica pubescens, Lotus Seed Heart, Toosendan, Andrographis paniculata, Sophora flavescens, Coptis chinensis, Gentiana scabra, Forsythia suspensa, Sophora japonica) are selected as bitterness representatives to participate in the bitterness masking experiment. (Note: The bitterness of Coptis chinensis slices can reach 5.2 after 20 minutes of water decoction. The reference standard solution is 90-degree water brewing Coptis chinensis powder, it is automatically cooled to obtain a solution with a bitter taste of 4.0. Because Coptis chinensis has been used as a standard bitter liquid, it is no longer used).
The experimental method is the same as the previous part.

[1] = Andrographis paniculata, original bitterness 5
[2] = Forsythia suspensa, original bitterness 3
[3] = Gentiana, original bitterness 5
[4] = Lotus seed heart, original bitterness 5
[5] = Sophora flavescens, original bitterness 5
[6] = Toulianzi, original bitterness 5

O=CC=Cc1ccccc1 [Cinnamaldehyde, 3-phenyl-2-propenal] showed a Bitterness reduction value [1] of 4, a Bitterness reduction value [2] of 1.7 and a Bitterness reduction value [3] of 4.2. The Bitterness reduction value [4] was 2.3, the Bitterness reduction value (Puhuo, original bitterness 5) was 4.2 and the Bitterness reduction value [5] was 2.3. The Bitterness reduction value [6] was 3.5.

For CC(C)=CCCC(C)=CC=O [Citral, citral], the Bitterness reduction value [1] was 1.5, the Bitterness reduction value [2] was 2.5 and the Bitterness reduction value [3] was 3.7. The Bitterness reduction value [4] was 3.5, the Bitterness reduction value (Puhuo, original bitterness 5) was 3.75 and the Bitterness reduction value [5] was 1.7. The Bitterness reduction value [6] was 1.5.

Compound C=CC(C)(O)CCC=C(C)C (stereo not drawn) [Linalool, linalool] has a Bitterness reduction value [1] of 0.8, a Bitterness reduction value [2] of 2 and a Bitterness reduction value [3] of 1.2. For the same compound, the Bitterness reduction value [4] was 1.6, the Bitterness reduction value (Puhuo, original bitterness 5) was 2.5 and the Bitterness reduction value [5] was 0.5. It also gave a Bitterness reduction value [6] of 1.1.
